The text below walks through data of patent US8268854B2, “Aza-beta-carbolines and methods of using same” (The UWM Research Foundation, Inc., priority 2008, dated 2012).

Structures can show the parent of a compound that is named as a salt.

The target in one experiment is T1, Serotonin receptor 5ht1b (Homo sapiens, UniProt P28222).
T1 construct: expressed in transfected cells
As to the kind of experiment: PDSP primary radioligand binding assay. The settings on record: compound 10 μM. How it is done: (§1) Primary and secondary radioligand binding assays are performed. In general, the primary assay is run at very high ligand (compound) concentration as a broad screen to determine whether a compound binds to a particular receptor. If greater than 50% inhibition at 10 μM (high concentration of compound) at a particular receptor is determined, a secondary assay is performed on that receptor. Data from the secondary assay is the binding affinity (Ki value).
(§2) A solution of the compound to be tested is prepared as a 1 mg/ml stock in Standard Binding Buffer or dimethyl sulfoxide (DMSO) according to its solubility. A similar stock of a reference compound (positive control) is also prepared.
(§3) Radioligand (radioligands are presented in Table 39) is diluted to five times the assay concentration (assay concentrations are presented in Table 39) in Standard Binding Buffer. Typically, the assay concentration of radioligand is a value between one half the KD and the KD of a particular radioligand at its target. Aliquots (50 μL) of radioligand are dispensed into the wells of a 96-well plate (see FIG. 11) containing 100 μL of Standard Binding Buffer (Table 40). Then, duplicate 50 μL aliquots of the test and reference compound dilutions are added (see FIG. 11). According to FIG. 11, increasing concentrations (from left to right) of reference or test compound (diluted in buffer) are added (50 μL aliquots, in duplicate) from 5× stock solutions to wells containing 50 μL of 5× radioligand (fixed concentration, prepared in buffer) and 100 μL of buffer. Finally, 50 μL of receptor-containing membrane homogenate (5× suspension in buffer) are added to achieve a final assay volume of 250 μL. Final concentrations of reference or test compound are listed above the columns in FIG. 11.
(§4) Finally, crude membrane fractions of cells expressing recombinant target (prepared from 10 cm plates by harvesting phosphate buffered saline (PBS)-rinsed monolayers, resuspending and lysing in chilled, hypotonic 50 mM Tris-HCl, pH 7.4, centrifuging at 20,000×g, decanting the supernatant and storing at −80° C.; typically, one 10 cm plate provides sufficient material for 24 wells) are resuspended in 3 mL of chilled Standard Binding Buffer and homogenized by several passages through a 26 gauge needle, and then 50 μL are dispensed into each well.
(§5) The 250 μL reactions are incubated at room temperature and shielded from light (to prevent photolysis of light-sensitive ligands) for 1.5 hours, then harvested by rapid filtration onto Whatman GF/B glass fiber filters pre-soaked with 0.3% polyethyleneimine using a 96-well Brandel harvester. Four rapid 500 μL washes are performed with chilled Standard Binding Buffer to reduce non-specific binding. Filters are placed in 6 mL scintillation tubes and allowed to dry overnight. The next day, 4 mL of EcoScint scintillation cocktail (National Diagnostics) are added to each tube. The tubes are capped, labeled, and counted by liquid scintillation counting. For higher throughput assays, bound radioactivity is harvested onto 0.3% polyethyleneimine-treated, 96-well filter mats using a 96-well Filtermate harvester. The filter mats are dried, then scintillant is melted onto the filters, and the radioactivity retained on the filters is counted in a Microbeta scintillation counter.
(§6) Raw data (dpm) representing total radioligand binding (i.e., specific+non-specific binding) are plotted as a function of the logarithm of the molar concentration of the competitor (i.e., test or reference compound). […]

For a further experiment, the target named is T2, SERT transporter (Homo sapiens, UniProt P31645).
T2 construct: expressed in transfected cells
The experiment can be described thus: PDSP primary radioligand binding assay. To be noted: compound 10 μM, n=4, read-out: mean percentage inhibition, SERT transporter. As for the experimental part: as §1, §2, §3, §4, §5, §6

The target in the next experiment is T3, Dopamine receptor D2 (Homo sapiens, UniProt P14416).
T3 construct: expressed in transfected cells
As to the kind of experiment: PDSP secondary radioligand binding assay. As for the experimental part: as §1
This assay is used to test binding to receptors such as the serotonin receptors: 5-HT1A, 5-HT1B, 5-HT1D, 5-HT1E, 5-HT2A, 5-HT2B, 5-HT2C, 5-HT3, 5-HT5A, 5-HT6 and 5-HT7. The protocol is adapted from Roth et al. J. Pharmacol. Exp. Ther. 1986, 238, 480-485 and Roth et al. J. Pharmacol. Exp. Ther. 1994, 268, 1403-1410. The assay buffer is Standard Binding Buffer (50 mM Tris-HCl, 10 mM MgCl2, 0.1 mM EDTA, pH 7.4). The membrane fraction source is transiently or stably transfected cell lines (e.g., HEK293, COS, CHO, NIH3T3).
A solution of the compound to be tested is prepared as a 1 mg/mL stock in Standard Binding Buffer or DMSO according to its solubility. A similar stock of a reference compound (positive control) is also prepared.
Radioligand (see Table 41) is diluted to five times the assay concentration (see Table 21) in Standard Binding Buffer. […]
as §5, with “Four rapid 500 μL washes are performed with chilled Standard Binding Buffer to reduce non-specific binding. Filters are placed in 6 mL scintillation tubes and allowed to dry overnight. The next day, 4 mL of EcoScint scintillation cocktail (National Diagnostics) are added to each tube.” left out, “counter. […]” for “counter.”

The target in the next experiment is T4, NET transporter (Homo sapiens, UniProt P23975).
T4 construct: expressed in transfected cells
As to the kind of experiment: PDSP primary radioligand binding assay. The settings on record: compound 10 μM. As for the experimental part: as §1, §2, §3, §4, §5, §6

T3 sequence (P14416 whole entry): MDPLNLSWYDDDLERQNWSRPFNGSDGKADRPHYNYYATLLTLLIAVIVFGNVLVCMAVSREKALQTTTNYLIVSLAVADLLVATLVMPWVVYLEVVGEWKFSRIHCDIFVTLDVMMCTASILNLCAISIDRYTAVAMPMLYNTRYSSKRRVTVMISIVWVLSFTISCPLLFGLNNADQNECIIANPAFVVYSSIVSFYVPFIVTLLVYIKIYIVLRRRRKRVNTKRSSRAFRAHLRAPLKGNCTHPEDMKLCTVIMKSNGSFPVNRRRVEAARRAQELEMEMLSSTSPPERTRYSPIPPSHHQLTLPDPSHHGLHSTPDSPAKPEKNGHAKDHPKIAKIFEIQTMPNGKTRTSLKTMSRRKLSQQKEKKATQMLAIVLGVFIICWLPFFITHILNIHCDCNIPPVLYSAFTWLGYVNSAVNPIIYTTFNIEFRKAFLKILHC
T1 sequence (P28222 whole entry): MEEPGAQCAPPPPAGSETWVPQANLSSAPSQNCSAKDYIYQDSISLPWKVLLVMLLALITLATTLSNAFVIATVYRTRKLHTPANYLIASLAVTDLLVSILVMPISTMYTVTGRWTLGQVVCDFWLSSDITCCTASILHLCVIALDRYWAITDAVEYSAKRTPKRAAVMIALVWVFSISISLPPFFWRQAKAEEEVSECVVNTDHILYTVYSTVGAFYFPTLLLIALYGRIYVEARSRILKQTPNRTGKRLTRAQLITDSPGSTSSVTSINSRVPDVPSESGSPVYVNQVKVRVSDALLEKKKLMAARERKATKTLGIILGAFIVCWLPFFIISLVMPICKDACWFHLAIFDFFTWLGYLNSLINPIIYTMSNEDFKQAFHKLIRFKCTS
T4 sequence (P23975 whole entry): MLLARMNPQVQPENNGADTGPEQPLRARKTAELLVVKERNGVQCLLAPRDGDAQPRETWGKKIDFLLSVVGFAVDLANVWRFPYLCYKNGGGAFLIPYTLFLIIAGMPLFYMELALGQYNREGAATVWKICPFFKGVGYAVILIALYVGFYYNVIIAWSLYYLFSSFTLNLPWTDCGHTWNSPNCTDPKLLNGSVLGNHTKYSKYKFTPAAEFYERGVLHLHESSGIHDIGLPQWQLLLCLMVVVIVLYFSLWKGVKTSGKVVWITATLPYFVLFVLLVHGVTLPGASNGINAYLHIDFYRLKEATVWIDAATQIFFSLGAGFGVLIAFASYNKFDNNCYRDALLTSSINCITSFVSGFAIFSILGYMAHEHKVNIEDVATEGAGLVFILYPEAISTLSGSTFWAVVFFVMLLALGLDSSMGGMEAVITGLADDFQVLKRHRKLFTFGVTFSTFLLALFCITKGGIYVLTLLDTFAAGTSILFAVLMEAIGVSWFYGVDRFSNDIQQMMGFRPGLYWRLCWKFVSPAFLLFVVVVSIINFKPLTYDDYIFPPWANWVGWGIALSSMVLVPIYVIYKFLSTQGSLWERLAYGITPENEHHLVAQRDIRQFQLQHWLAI
T2 sequence (P31645 whole entry): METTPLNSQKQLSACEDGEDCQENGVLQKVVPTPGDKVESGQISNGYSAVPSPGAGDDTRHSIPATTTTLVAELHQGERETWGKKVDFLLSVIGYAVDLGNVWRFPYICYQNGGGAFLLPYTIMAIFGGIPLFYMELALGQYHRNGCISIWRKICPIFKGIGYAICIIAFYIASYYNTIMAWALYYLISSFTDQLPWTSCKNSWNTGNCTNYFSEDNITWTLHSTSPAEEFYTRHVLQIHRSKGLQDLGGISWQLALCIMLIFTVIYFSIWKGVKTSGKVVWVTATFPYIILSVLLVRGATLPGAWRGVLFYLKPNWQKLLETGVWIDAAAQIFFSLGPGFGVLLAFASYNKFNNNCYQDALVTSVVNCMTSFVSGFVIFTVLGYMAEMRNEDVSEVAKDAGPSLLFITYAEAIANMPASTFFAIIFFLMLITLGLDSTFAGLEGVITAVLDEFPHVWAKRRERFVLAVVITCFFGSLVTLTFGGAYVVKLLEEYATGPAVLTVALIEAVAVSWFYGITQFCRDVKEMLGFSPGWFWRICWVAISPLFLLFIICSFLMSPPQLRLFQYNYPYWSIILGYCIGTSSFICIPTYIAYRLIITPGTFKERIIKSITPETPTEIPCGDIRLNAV

The term inhibition denotes the percentage by which the read-out fell short of the control. Broadly, the Ki is a measure of affinity in units of concentration, obtained from inhibition or displacement. On to `CCCOc1cc2c(cn1)[nH]c1ccncc12` [Compound 2, 8-Propoxypyridino[4′,3′-5,4]pyrrolo[3,2-c]pyridine hydrochloride], for which, on Serotonin receptor 5ht1b (n=4, hydrochloride, 10 µM), the “mean percentage inhibition, Serotonin receptor 5ht1b” value stood at 47%. Moreover, the inhibition at 10 µM at Serotonin receptor 5ht1b (n=4, read-out: mean percentage inhibition, Serotonin receptor 5ht1b) is below 50%; on SERT transporter it was 22.1%. Besides, the Ki on Dopamine receptor D2 is above 10 µM.

With `CCCOc1cc2c(cn1)[nH]c1cnccc12` [Compound 4, 3-Propoxy pyridino[4′,3′-4,5]pyrrolo[2,3-c]pyridine hydrochloride], the “mean percentage inhibition, NET transporter” value at NET transporter (n=4, hydrochloride, 10 µM) was 36.8%. For the same compound, the inhibition at 10 µM on NET transporter (n=4, read-out: mean percentage inhibition, NET transporter) was below 50%. For the same compound, at Dopamine receptor D2, the Ki was above 10 µM.
